What was measured:
[1] = system: 3T3-L1 cells; test: Inhibition of adipocyte differentiation, Oil Red O staining of triglyceride; assay type: cell-based, mouse
Protocol: Mouse adipocyte cell line (3T3-L1) was used to investigate the effect of various indole-3-carbinol derivatives on differentiation and growth of adipocytes. The preadipocytes, 3T3-L1 cells, were seeded on a 12-well plate and cultured to confluency using Dulbecco's modified Eagle's medium (DMEM) containing 1% penicillin-streptomycin, 1% nonessential amino acid and 10% fatal bovine serum (FBS), in a 5% CO2 incubator at 37° C. The 3T3-L1 cells grown to confluency were cultured for 2 days in MDI medium containing 0.5 mM isobutylmethylxanthine, 1 μM dexamethasone and 1 μg/mL insulin to differentiate them into adipocytes. Then, the cells were further cultivated in DMEM containing 1 μg/mL insulin to differentiate them into mature adipocytes. The cells were further cultured for 10 more days while replacing DMEM every other day to obtain fully differentiated adipocytes.
From the first day when MDI was added to the 3T3-L1 cells, 16 indole-3-carbinol derivative compounds were treated at concentrations of 0.1, 1, 10, 50 and 100 μM with 2-day intervals. The structure and molecular weight of the 16 indole-3-carbinol derivatives (B518, B521, B525, B528, B538, B540, B542, B544, B545, B546, B547, B549, B551, B556, B558 and B561) are described in Table 1. The derivative compounds were used after being dissolved in DMSO. Only DMSO was added to the negative control group.
After culturing for a total of 14 days, the medium was removed when the differentiation was completed and lipid droplets in the differentiated adipocytes were stained. For this, the cells were washed twice with phosphate buffered saline (PBS), fixed in 10% buffered neutral formalin (BNF) for 1 hour, washed once again with PBS, stained for 1 hour by adding 1 mL of Oil Red O dye, which specifically stains fat red, on the 12-well plate, and washed twice with distilled water. In order to measure the level of triglyceride contained in the differentiated 3T3-L1 cells, the stained lipid droplets were dissolved in 1 mL of isobutanol and optical density (OD) value was measured at 600 nm.

[2] = Body weight gain and visceral fat weight of mice fed high-fat test diet; assay type: in vivo, C57BL/6J mice; settings: 0.05% in high-fat diet, 10 weeks
Protocol: (§1) The obesity-inducing control diet used in the test was high-fat diet (HFD: 40% fat calorie, 17 g lard+3% corn oil/100 g diet). Diets supplemented with indole-3-carbinol derivatives (B525 and B528) had the same composition as HFD, except that each derivative was included at 0.05% (see Table 2). The diabetic drug metformin was added at 0.1% or the hyperlipidemic drug atorvastatin was added at 0.01% to HFD as controls. The normal diet group (Chow) was fed with commercially available rodent chow.
(§2) 56 5-week-old male C57BL/6J mice (Orient, Korea) were accustomed to the laboratory environment for 1 week while feeding solid feed. Then, they were randomly divided into normal diet, high-fat diet and test groups (n=8/group) and bred for a total of 10 weeks. The diet was given between 10 and 11 a.m. every day together with water. Food intake was measured every day and body weight was measured once a week. In order to avoid transient body weight increase after feed intake, body weight was measured 2 hours after removing the feed. After fasting the test animal for at least 12 hours and anesthetizing with diethyl ether, blood, liver and visceral fat (epididymal fat, perirenal fat, mesenteric fat and retroperitoneal fat) were taken and weighed after washing with 0.1 M PBS (pH 7.4). Blood taken from the abdominal aorta was centrifuged at 1000×g for 15 minutes to separate the plasma.

[3] = Biochemical analysis of blood (plasma lipids) of mice fed high-fat test diet; assay type: in vivo, C57BL/6J mice; settings: 0.05% in high-fat diet, 10 weeks
Protocol: as §1, §2
After 10 weeks of breeding, total cholesterol, triglyceride and glucose levels in the plasma and lipid level in the liver tissue were measured as follows. Total cholesterol, triglyceride and free fatty acid levels in the plasma were measured twice for each using a commercially available kit (Bio Clinical System).

[4] = Fasting blood sugar and oral glucose tolerance test in mice fed high-fat test diet; assay type: in vivo, C57BL/6J mice
Protocol: as §1, §2
On week 8 after feeding the test diet, oral glucose tolerance test was performed for all the groups. After fasting the mouse for 16 hours, glucose (2 g glucose/10 mL distilled water/kg body weight) was orally administered. Before and 15, 30, 60 and 120 minutes after the oral administration, the tail end was cut by about […] and blood was taken. Glucose level was measured using a glucose meter.

[5] = Liver weight and lipid level in liver tissue of mice fed high-fat test diet; assay type: in vivo, C57BL/6J mice; settings: 0.05% in high-fat diet, 10 weeks
Protocol: as §1, §2
Lipids were extracted from the liver tissue according to Folch et al.'s method Folch J et al., J Biol. Chem. 226: 497-509 (1957)). After adding 1 mL of distilled water to 0.25 g of liver tissue, the liver tissue was homogenized using a Polytron homogenizer (IKA-Werke GmbH & Co., Ultra-Turrax, Staufen, Germany). After adding 5 mL of chloroform:methanol solution (2:1, v/v) to the homogenate and mixing well, the mixture was centrifuged at 1000×g for 10 minutes. After adding 2 mL of chloroform:methanol solution (2:1, v/v) again to the supernatant, the same procedure was repeated to completely separate the lipid components of the liver. After adding 3 mL of chloroform:methanol:0.05% CaCl2 (3:48:47, v/v/v) solution to the remaining pellets and mixing well for 1 minute, followed by centrifugation at 1000×g for 10 minutes, the resulting pellets were completely dried with nitrogen gas. The dried lipids were dissolved in 1 mL of methanol and then analyzed.
The same kit (Bio Clinical System) as that used for the plasma analysis was used to measure the triglyceride and cholesterol levels of the liver tissue.

SMILES: CCN1C(=O)C(O)(c2c(C)[nH]c3ccccc23)c2cc(Br)ccc21 (centres unmarked) [B528, 5′-Bromo-1′-ethyl-3′-hydroxy-2-methyl-1′,3′-dihydro-1H,2′H-3,3′-biindol-2′-one]
- differentiation of the preadipocytes 3T3L1 ([1]; 0.1, 1, 10, 50 and 100 μM, 14 days, vs DMSO control): reduced the differentiation of the preadipocytes 3T3L1 in a concentration-dependent manner
- triglyceride accumulation in cells ([1]; 3T3-L1 cells, FIGS. 1-3): effectively reduce triglyceride accumulation in cells
- decrease of body weight gain as compared to HFD [2]: 30%
- reduction of total visceral fat weight as compared to HFD [2]: 26%
- weight of epididymal fat, perirenal fat, mesenteric fat and retroperitoneal fat as compared to HFD [2]: significantly reduced
- reduction of arteriosclerotic index in blood plasma as compared to HFD [3]: 35%
- reduction of total cholesterol level in blood plasma as compared to HFD [3]: 21%
- reduction of triglyceride level in blood plasma as compared to HFD [3]: 38%
- reduction of fasting blood sugar level as compared to HFD ([4]; 0.05% in high-fat diet, 8 weeks): 39%
- blood glucose level after oral glucose as compared to HFD ([4]; OGTT, 15, 30, 60 and 120 minutes, week 8): decreased blood glucose level at all times
- change of blood glucose level after oral glucose as compared to HFD ([4]; OGTT, after 60 minutes, week 8): −29%
- area under the curve (AUC) of the blood glucose level as compared to HFD ([4]; OGTT, week 8): decreased significantly
- effect on oral glucose tolerance compared to controls metformin and atorvastatin ([4]; OGTT, week 8): excellent effect of improving oral glucose tolerance, better than the controls metformin and atorvastatin
- appearance of liver tissue as compared to HFD [5]: smaller and darker liver tissue
- decrease of cholesterol level in liver tissue as compared to HFD [5]: 28%
- decrease of liver weight as compared to HFD [5]: 31%
- decrease of triglyceride level in liver tissue as compared to HFD [5]: 34%

From patent publication US8946283B2, “Composition for preventing or treating obesity, dyslipidemia, fatty liver or diabetes containing indole-3-carbinol derivative as active ingredient” (Industry-Academic Cooperation Foundation, Yonsei University, priority 2011, dated 2015)
